Test results published in a melting point compilation (Tetko et al.; mined from patent text by program, amines drawn as free bases though some values may be those of a salt).

Row | SMILES | melting point
1 | Cc1c(C)c2c(c(C)c1O)CCC(C)(CCc1ccccc1)O2 (centres undefined) | 96 to 98 °C
2 | CCCCCCCCCCCCCCC1(C(=O)OC)CO1 (centres undefined) | 47 to 48 °C
3 | COc1ccc(C(=O)Nc2cccc3c2CCN(C)C3)cc1 | 170 to 172 °C
4 | CC1(C)NC(=O)c2ccccc21 | 159 to 160 °C
5 | O=c1cnc2c(NCCO)nc(SCc3cccc(C(F)(F)F)c3F)nc2[nH]1 | 221 to 222 °C
6 | CCOC(=O)CCC(=O)Oc1cc([N+](=O)[O-])cc([N+](=O)[O-])c1OC(=O)CCC(=O)OCC | 60 to 63 °C
7 | O=C1[C@H](O)CCN1CC#CCN1CCCC1 | 81 to 85 °C
8 | O=C(Nc1ccc(C(F)(F)F)cc1)NC1CCN(C(=O)Cc2c[nH]cn2)CC1 | 121 to 124 °C
9 | O=C1OC(CN2CCC(O)(c3ccc(Cl)cc3)CC2)CN1c1ccccc1 (centres undefined) | 139 to 140 °C
10 | O=C(O)COc1c[nH]cc(Cl)c1=O | 253 to 255 °C
11 | NS(=O)(=O)c1ccc(-c2noc(-c3cnc4c(C(F)(F)F)cc(-c5ccc(C(F)(F)F)cc5)cn34)n2)cc1 | 292 °C
12 | CCCCOCCCNC(=O)c1cnc(C(=O)NCC(=O)OCCCC)c(OC)c1 | 115 to 117 °C
13 | COc1cc(Br)ccc1OCc1ccc2ccccc2c1 | 108 °C
14 | O=C(CC(C(=O)O)c1ccccc1)Nc1cccc(/C=C/c2nc(C3CCC3)cs2)c1 (centres undefined) | 202 to 203 °C
15 | O=C(Cn1c(-c2nonc2NCCCO)nc2ccccc21)c1ccc(Cl)cc1 | 166 to 169 °C
16 | CC(=O)c1cnc2c(c1)oc(=O)n2CCc1ccccn1 | 138 to 140 °C
17 | NS(=O)(=O)OCCCCOc1ccccc1 | 76 to 77 °C
18 | Cc1cc2ccc(/C=C/C(=O)OCc3ccccc3)cc2[nH]1 | 164 to 165 °C
19 | CCOCCNC(=O)c1ccc(-c2ccc(C(CC3CCOCC3)c3ccc(S(=O)(=O)C4CC4)cc3)[nH]2)nc1 (centres undefined) | 87 to 90 °C
20 | COc1cccc2c(=O)n3nc(C(N)=O)cc3[nH]c12 | 265 to 270 °C
21 | CN1CC[C@H](c2c(O)cc(O)c3c(=O)cc(-c4ccccc4Cl)oc23)[C@H](O)C1 | 182 °C
22 | Cn1cc(-c2cc(-c3cnc(N)c(C(F)(F)F)c3)ccn2)n(-c2ccc(C(C)(C)C#N)cc2)c1=O | 195 °C
23 | Cc1nc(-c2ccccc2)nc(-c2cccc([N+](=O)[O-])c2)c1C(C)Br (centres undefined) | 133 to 134 °C
24 | OC(CN1CCOCC1)c1cc(C(F)(F)F)nc2c(C(F)(F)F)cccc12 (centres undefined) | 129 to 130 °C
25 | CCc1nn(C[C@@H]2CCCN2C)c(C(N)=O)c1[N+](=O)[O-] | 148 to 150 °C
26 | CCCO[C@H]1CC[C@H](c2cnc(-c3ccc(C#N)cc3)nc2)CC1 | 114 °C

Row | SMILES | melting point
27 | N#CC(=C(Cl)c1ccc(Br)cc1)c1ccccc1 | 128 to 130 °C
28 | COC(=O)Nc1cc(OC2CCCC2)c(Cl)cc1F | 120 to 123 °C
29 | COC(=O)[C@H]1CN(C(=O)OC(C)(C)C)C[C@H]1c1ccc(OC)c(OC2CCCC2)c1 (relative stereo) | 85 to 87 °C
30 | CC(C)(C)OC(=O)NC[C@H]1CN(c2ccc3c(c2)CCCCC3=O)C(=O)O1 | 155 to 157 °C
31 | CN(C)Cc1cc(-c2ccc3c(c2)CCO3)nn(CC2CC2)c1=O | 109 to 110 °C
32 | Cc1c(Cl)cccc1S(=O)(=O)C[N+](=O)[O-] | 78 to 79 °C
33 | C[C@@H](CN1C(=O)c2ccccc2C1=O)CC(F)(F)F | 45 to 47 °C
34 | O=C(O)COc1ccc2c(-c3ccccc3F)noc2c1Br | 180 to 182 °C
35 | NC(=O)c1cc(-c2ccc(F)cc2)sc1N | 170 to 171 °C
36 | Fc1cc(-c2ccno2)c(Cl)cc1Cl | 112 to 113 °C
37 | COc1ccc(NC2=NN(c3cccc(C(F)(F)F)c3)CC2)cc1 | 127 to 128 °C
38 | CN(C)c1cccc(Oc2cccc(Cl)n2)c1 | 71 to 72 °C
39 | CC(=O)OCCCCN(C)CCCN(C)C(=O)[C@@H]1CCCN1S(=O)(=O)c1ccc(Cl)c(COc2cccc3c(-n4ccnc4)cc(C)nc23)c1Cl | 88 °C
40 | O=c1c(O)nc2cccnc2n1-c1ccc(Cl)cc1 | > 300 °C
41 | Oc1ccc(-c2ccc(OC(F)(F)F)cc2)cc1 | 140 °C
42 | CC(=O)OC(C)N1C(=O)/C(=C\c2[nH]c(C)cc2C)c2ccccc21 (centres undefined) | 107 to 110 °C
43 | CCOC(=O)c1ccc(N)c(Cl)c1 | 82 to 83 °C
44 | CCOC(=O)c1c(Sc2ccccc2)cc(C(F)(F)F)nc1C(F)(F)F | 58 to 61 °C
45 | N#Cc1nn(Cc2ccccc2)c2ccccc12 | 91 °C
46 | CCC(=O)C1=C(O)CC(c2ccc3ccccc3c2)CC1=O (centres undefined) | 125 °C
47 | CC(=O)N1c2ccccc2Sc2c1ccc(O)c2Cl | 214 °C
48 | CS(=O)(=O)c1ccc(-n2cnc3ccc(-c4nnc(C5CC5)o4)cc32)cc1 | 215 to 216 °C
49 | CC(=O)NC[C@H]1CN(c2ccc(N3CCN(C(=O)CCC(=O)c4ccc(Cl)cc4)CC3)c(F)c2)C(=O)O1 | 208 to 209 °C
50 | Oc1ccc2c(c1)nc(NC1CCN(CCNc3ncccn3)CC1)n2Cc1ccc(F)cc1 | 194 °C
51 | COc1ccc(N(C(=O)F)C(=O)Cl)cc1Cl | 124 to 127 °C
52 | O=c1c2ccccc2sc2ccc(S(=O)(=O)C(F)(F)F)cc12 | 163 to 164 °C

Row | SMILES | melting point
53 | CN1CCCCC1C(=O)NN=Cc1cc(Cl)cc(Cl)c1O (centres undefined) | 107 to 110 °C
54 | COc1cc(C)c(CC(=O)O)cc1C(C)C | 107 to 109 °C
55 | COc1ccc2[nH]c(SCc3nccc(N4CCCC4)n3)nc2c1 | 199 to 202 °C
56 | COC(=O)C#CC(=O)c1cccc(C)c1 | 36 to 38 °C
57 | COc1ccc(N2CCN(c3ccc(-n4cccn4)cc3)CC2)cc1 | 208 °C
58 | Fc1cc(Cl)ccc1-c1ncnc(C(F)F)c1Cl | 76 to 77 °C
59 | Fc1cc(F)cc(Cn2cnnc2S)c1 | 129 to 130 °C
60 | CCN(CCO)C(=O)c1ccc(C(=O)N2CCN(c3ncccc3NC(C)C)CC2)cc1 | 115 °C
61 | O=C(Cc1ccccc1)N[C@@H]1C(=O)N2C[C@@H](O)CS[C@H]12 | 166 to 167 °C
62 | CCCn1c(=O)c2nc(-c3ccc(/C=C/C(=O)O)cc3)[nH]c2n(Cc2ccccc2)c1=O | > 300 °C
63 | CC(=O)N(C)c1ccc(-c2cc3ccc(Br)cn3c2)cc1C | 197 to 198 °C
64 | CCc1cc(-c2nc(C)c(-c3ccnc(Nc4cccc(CNC(C)=O)c4)n3)s2)ccn1 | 180 to 182 °C
65 | Cc1ccc(S(=O)(=O)N2[C@@H](C#N)CC[C@H]2c2ccc(F)cc2)cc1 (racemic) | 128 °C
66 | CSc1ccc(Oc2ccc([N+](=O)[O-])cc2[N+](=O)[O-])cc1 | 119 to 120 °C
67 | Cc1cc(C(F)(F)F)nc(-c2ccc(O)cc2)n1 | 131 to 132 °C
68 | CCCc1nc2c(N)nc3ccc(-c4cccc(NC(C)=O)c4)cc3c2s1 | 242 to 245 °C
69 | O=Cc1c(Cl)ncnc1Cl | 65 to 66 °C
70 | CCc1c2nc(-c3cc(C(C)=O)cnc3OCC(C)C)[nH]c(=O)c2nn1C1CCN(C)CC1 | 195 to 196 °C
71 | CONS(=O)(=O)c1ccc(Cl)s1 | 65.5 to 66.5 °C
72 | CCCC(C(=O)OCC)c1ccc(N2Cc3ccccc3C2=N)cc1 (centres undefined) | 158 to 160 °C
73 | N=C(NO)c1cccc2nc(N[C@@H]3CCc4ccccc43)ccc12 | 200 °C
74 | CCOC(=O)c1[nH]c2cc(Cl)cc(Cl)c2c1NCC(=O)c1ccc([N+](=O)[O-])cc1 | 283 to 286 °C
75 | CC(C)(C)OC(=O)N[C@@H](Cc1ccc(O)c(O)c1)C(=O)O | 148 °C
76 | CCC(CNC(=O)c1ccc(C(F)(F)F)c(NC(C)=O)c1)OC(C)=O (centres undefined) | 121 °C
77 | OCc1cc(-c2ccc(C(F)(F)F)cc2)on1 | 111 to 113 °C
78 | COc1ccc2c(c1)CCC(N(C)c1ccc(O)cc1)C2 (centres undefined) | 79 to 82 °C

Row | SMILES | melting point
79 | CCOC(=O)c1c(N)c(C)c(C)n1C | 63 to 64 °C
80 | CCOC(=O)c1c(C(F)(F)F)nc(C(F)F)c(C(=O)OC)c1N1CC1 | 92 to 95 °C
81 | CCCc1cc(C(=O)O)nn1C | 120 to 122 °C
82 | CC(=O)N1CCCCc2ccc(C(=O)CCCl)cc21 | 106 to 107 °C
83 | COc1cc2c(cc1S(=O)(=O)Cl)CCN(C(C)=O)CC2 | 153 to 160 °C
84 | FC(F)(F)c1ccn(-c2ccnc(Cl)n2)n1 | 111 to 112 °C
85 | CC1(C)Oc2ccc(S(=O)(=O)c3ccc(C#N)cc3)cc2[C@@H](N2CCCC2=O)[C@@H]1O (relative stereo) | 234 to 235 °C
86 | O=C(c1ccc(C(=O)N2CCC[C@@H]3CCCC[C@H]32)cc1)N1CCCCC1 (relative stereo) | 136 to 137 °C
87 | CCOC(=O)Nc1ccc2sc(C)cc(=O)c2c1 | 219 to 220 °C
88 | CCC(C(=O)C(C)C(O)C(C)CCc1c(NC(C)=O)cc(C)c(O)c1C(=O)O)C1OC(CC)(C2CCC(O)(CC)C(C)O2)CC1C (centres undefined) | 189 to 190 °C
89 | C[C@H](Cc1ccc(-c2cc(F)cc(F)c2)cc1)c1ccccc1 | 49.8 to 51.3 °C
90 | COc1ccc(CNc2ncccc2C(=O)O)cc1 | 229 °C
91 | O=C1c2ccccc2C(=O)c2sc(-c3ccsc3)nc21 | 258 °C
92 | Cc1nc(-c2ccc(Br)cc2)sc1C(=O)N[C@H](C)[C@](O)(Cn1cncn1)c1ccc(F)cc1F | 165 to 166 °C
93 | COc1ccc(-n2c(CF)nc3ccc([N+](=O)[O-])cc3c2=O)c(C)c1 | 190 to 192 °C
94 | CN1C(=O)N(c2c(Cl)cccc2Cl)Cc2cnc(NCc3ccccc3)nc21 | 195 to 198 °C
95 | CCCCOC(=O)[C@H]1CN(c2ccc3c(c2)sc(=O)n3CC)C(=O)O1 | 99 to 102 °C
96 | O=C(Cn1nccc1-c1ccc(Oc2ccc(F)cc2)cc1)N1CCCC1 | 90 to 95 °C
97 | CC(C)CCCC(C)NC1=NS(=O)(=O)c2sc(Cl)cc2N1 (centres undefined) | 197 to 199 °C
98 | O=C(Nc1nncs1)c1ccc2ccccc2c1 | 197 to 199 °C
99 | Cc1cc(C)c(CC(=O)O)c(C#N)c1 | 155 to 157 °C
100 | CCOC(=O)c1cn(-c2ccccc2)nc1OCc1ccccc1 | 113 to 114 °C
101 | Cc1nnc2n1-c1ccccc1C(c1ccccc1)=NC2 | 216 to 218 °C
102 | Cc1cc(F)ccc1Oc1ccc(C2=CC=CN3CCS(=O)(=O)N=C23)cc1 | 240 to 242 °C
103 | CCCCC(Cc1ccc(OCCNC(=O)c2ccc(-c3ccccc3)cc2)cc1)C(=O)O (centres undefined) | 130 to 131 °C
104 | Cc1cn(-c2ccc(F)cc2)c2ccc(Br)cc12 | 97 to 98 °C
